Legend:
[1] = molecular target: T1, 5-hydroxytryptamine receptor 2C (Homo sapiens, UniProt P28335); assay: biochemical; type: cell-based, CHO-K1
T1 sequence (P28335 whole entry): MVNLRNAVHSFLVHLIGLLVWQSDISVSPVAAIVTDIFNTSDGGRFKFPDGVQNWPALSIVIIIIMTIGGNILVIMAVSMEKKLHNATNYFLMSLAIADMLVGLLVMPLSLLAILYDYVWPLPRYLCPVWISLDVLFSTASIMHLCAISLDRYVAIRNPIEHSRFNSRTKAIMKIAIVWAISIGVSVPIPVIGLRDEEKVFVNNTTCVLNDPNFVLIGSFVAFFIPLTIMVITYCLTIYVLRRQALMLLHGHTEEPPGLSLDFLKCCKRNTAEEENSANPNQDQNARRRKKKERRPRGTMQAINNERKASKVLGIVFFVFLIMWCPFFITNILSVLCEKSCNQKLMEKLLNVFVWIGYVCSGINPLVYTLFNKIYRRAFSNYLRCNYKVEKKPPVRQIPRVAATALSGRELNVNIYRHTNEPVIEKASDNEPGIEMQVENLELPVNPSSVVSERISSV
Description: Displacement of [3H]mesulergine from human recombinant 5-HT2C receptor expressed in CHO-K1 cells

Cytochrome P450 2D6 = Cytochrome P450 2D6 (Homo sapiens, UniProt P10635)
Description: Inhibition of human recombinant CYP2D6 by luceferin-based assay

in vitro = settings: mouse, ht-22
Description: Cytotoxicity against mouse HT22 cells after 48 hrs by MTT assay

Cytochrome P450 3A4 = Cytochrome P450 3A4 (Homo sapiens, UniProt P08684)
Description: Inhibition of human recombinant CYP3A4 by luceferin-based assay

Cytochrome P450 1A2 = molecular target: T2, Cytochrome P450 1A2 (Homo sapiens, UniProt P05177)
T2 sequence (P05177 whole entry): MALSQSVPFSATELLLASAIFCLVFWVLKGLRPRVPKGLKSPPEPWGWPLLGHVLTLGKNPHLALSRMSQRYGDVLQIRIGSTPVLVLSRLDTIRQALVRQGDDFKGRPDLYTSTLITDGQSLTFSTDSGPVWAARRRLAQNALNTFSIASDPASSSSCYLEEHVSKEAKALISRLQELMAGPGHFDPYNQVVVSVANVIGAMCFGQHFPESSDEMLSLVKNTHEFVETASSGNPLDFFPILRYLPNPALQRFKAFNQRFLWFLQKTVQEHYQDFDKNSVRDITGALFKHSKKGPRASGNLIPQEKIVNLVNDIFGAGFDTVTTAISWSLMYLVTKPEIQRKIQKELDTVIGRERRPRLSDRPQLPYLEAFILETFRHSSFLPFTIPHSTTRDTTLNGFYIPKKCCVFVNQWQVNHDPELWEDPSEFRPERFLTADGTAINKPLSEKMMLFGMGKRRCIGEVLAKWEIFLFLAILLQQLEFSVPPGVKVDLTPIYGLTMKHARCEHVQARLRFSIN
Description: Inhibition of human recombinant CYP1A2 by luceferin-based assay

Cytochrome P450 2C9 = Cytochrome P450 2C9 (Homo sapiens, UniProt P11712)
Description: Inhibition of human recombinant CYP2C9 by luceferin-based assay

[2] = molecular target: T3, 5-hydroxytryptamine receptor 1A (Homo sapiens, UniProt P08908)
T3 sequence (P08908 whole entry): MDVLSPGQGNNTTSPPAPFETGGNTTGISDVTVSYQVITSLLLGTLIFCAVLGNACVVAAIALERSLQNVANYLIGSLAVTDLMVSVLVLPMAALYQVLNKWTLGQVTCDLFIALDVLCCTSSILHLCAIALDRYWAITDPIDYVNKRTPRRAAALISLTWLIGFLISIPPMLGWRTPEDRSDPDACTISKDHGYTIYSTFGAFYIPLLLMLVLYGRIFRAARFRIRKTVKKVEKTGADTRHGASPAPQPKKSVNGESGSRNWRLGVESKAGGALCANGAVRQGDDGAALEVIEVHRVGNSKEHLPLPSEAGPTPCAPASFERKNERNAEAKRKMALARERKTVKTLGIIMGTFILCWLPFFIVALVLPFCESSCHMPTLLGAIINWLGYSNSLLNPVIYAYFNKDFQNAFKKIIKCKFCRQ
Description: Inhibition of 5HT1A receptor by competition binding assay

D(3) dopamine receptor = D(3) dopamine receptor (Homo sapiens, UniProt P35462)
Description: Inhibition of dopamine D3 receptor by competition binding assay

D(4) dopamine receptor = molecular target: T4, D(4) dopamine receptor (Homo sapiens, UniProt P21917)
T4 sequence (P21917 whole entry): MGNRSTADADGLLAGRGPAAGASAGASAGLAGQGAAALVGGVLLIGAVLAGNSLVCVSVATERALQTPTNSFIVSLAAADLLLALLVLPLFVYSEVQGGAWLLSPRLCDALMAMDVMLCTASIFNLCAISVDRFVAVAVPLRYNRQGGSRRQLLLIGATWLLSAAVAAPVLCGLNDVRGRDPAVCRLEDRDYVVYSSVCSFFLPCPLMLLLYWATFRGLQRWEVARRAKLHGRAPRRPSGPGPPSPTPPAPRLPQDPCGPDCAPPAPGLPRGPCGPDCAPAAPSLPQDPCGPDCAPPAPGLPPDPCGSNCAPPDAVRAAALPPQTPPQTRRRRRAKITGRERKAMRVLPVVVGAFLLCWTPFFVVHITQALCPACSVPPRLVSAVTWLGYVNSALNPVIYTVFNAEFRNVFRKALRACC
Description: inhibition of dopamine D4 receptor by competition binding assay

[3] = molecular target: 5-hydroxytryptamine receptor 7 (Homo sapiens, UniProt P34969)
Description: Inhibition of 5HT7 receptor by competition binding assay

D(2) dopamine receptor = D(2) dopamine receptor (Homo sapiens, UniProt P14416)
Description: Inhibition of dopamine D2 receptor by competition binding assay

[4] = molecular target: 5-hydroxytryptamine receptor 6 (Homo sapiens, UniProt P50406)
5-hydroxytryptamine receptor 6, sequence (P50406 whole entry): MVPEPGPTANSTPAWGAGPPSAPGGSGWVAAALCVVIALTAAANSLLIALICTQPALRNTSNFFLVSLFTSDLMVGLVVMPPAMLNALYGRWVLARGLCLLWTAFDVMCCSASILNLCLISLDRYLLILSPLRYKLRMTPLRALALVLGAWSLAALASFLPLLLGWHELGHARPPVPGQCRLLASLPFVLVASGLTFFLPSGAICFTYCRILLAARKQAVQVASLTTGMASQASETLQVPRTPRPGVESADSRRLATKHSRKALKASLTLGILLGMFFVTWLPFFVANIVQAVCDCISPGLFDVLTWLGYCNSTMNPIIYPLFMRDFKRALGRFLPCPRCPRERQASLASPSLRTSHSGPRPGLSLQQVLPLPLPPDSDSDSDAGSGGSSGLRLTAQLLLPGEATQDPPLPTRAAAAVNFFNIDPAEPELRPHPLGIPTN
Description: Inhibition of 5HT6 receptor by competition binding assay

Cytochrome P450 2D6, sequence (P10635 whole entry): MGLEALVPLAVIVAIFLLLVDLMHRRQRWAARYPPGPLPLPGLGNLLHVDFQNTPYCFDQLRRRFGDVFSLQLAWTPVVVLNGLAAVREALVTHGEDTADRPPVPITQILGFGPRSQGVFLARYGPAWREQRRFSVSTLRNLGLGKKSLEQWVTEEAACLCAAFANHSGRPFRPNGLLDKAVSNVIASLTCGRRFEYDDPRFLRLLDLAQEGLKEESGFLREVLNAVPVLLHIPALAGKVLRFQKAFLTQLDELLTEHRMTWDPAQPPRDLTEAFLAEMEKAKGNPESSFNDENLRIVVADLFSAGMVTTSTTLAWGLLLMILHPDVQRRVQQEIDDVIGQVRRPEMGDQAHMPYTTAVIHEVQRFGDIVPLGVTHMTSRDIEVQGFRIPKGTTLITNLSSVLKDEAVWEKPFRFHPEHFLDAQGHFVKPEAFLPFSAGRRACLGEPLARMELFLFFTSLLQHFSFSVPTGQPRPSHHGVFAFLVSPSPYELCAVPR
Cytochrome P450 2C9, sequence (P11712 whole entry): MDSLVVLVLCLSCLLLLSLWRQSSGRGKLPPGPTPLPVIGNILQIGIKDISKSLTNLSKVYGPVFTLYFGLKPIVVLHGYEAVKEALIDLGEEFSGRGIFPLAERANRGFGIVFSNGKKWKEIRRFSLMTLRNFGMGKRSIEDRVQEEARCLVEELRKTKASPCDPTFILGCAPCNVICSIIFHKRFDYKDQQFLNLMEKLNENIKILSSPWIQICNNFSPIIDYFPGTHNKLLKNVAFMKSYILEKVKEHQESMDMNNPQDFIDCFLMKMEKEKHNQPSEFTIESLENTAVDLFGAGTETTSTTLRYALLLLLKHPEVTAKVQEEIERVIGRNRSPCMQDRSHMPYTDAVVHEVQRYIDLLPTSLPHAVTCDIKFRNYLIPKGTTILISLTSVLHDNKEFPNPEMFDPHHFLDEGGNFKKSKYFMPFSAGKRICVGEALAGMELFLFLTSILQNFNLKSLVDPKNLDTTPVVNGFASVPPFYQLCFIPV
Cytochrome P450 3A4, sequence (P08684 whole entry): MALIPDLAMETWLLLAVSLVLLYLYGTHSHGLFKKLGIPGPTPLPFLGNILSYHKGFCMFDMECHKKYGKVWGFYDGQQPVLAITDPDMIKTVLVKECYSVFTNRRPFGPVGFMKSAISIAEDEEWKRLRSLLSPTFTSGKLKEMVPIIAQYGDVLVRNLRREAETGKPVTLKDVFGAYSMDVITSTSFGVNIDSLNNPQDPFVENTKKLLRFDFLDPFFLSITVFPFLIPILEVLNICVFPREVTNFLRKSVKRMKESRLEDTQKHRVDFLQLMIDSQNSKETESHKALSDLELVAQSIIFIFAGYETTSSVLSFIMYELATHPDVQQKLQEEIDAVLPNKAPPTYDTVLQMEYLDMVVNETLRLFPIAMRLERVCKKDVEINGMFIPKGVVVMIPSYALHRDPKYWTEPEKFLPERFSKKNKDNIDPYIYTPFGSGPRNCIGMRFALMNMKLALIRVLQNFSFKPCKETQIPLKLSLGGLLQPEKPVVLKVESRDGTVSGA
D(2) dopamine receptor, sequence (P14416 whole entry): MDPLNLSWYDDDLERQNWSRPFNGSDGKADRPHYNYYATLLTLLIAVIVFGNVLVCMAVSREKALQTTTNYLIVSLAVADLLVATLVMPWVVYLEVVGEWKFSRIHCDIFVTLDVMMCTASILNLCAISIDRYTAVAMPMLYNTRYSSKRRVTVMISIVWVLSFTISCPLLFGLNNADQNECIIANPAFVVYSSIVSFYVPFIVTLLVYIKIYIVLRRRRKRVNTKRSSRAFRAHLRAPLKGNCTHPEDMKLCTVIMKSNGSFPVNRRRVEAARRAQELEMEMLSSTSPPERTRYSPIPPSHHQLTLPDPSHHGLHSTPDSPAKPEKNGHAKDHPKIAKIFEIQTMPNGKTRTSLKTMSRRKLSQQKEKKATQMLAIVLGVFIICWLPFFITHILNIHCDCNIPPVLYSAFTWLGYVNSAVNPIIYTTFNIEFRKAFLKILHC
5-hydroxytryptamine receptor 7, sequence (P34969 whole entry): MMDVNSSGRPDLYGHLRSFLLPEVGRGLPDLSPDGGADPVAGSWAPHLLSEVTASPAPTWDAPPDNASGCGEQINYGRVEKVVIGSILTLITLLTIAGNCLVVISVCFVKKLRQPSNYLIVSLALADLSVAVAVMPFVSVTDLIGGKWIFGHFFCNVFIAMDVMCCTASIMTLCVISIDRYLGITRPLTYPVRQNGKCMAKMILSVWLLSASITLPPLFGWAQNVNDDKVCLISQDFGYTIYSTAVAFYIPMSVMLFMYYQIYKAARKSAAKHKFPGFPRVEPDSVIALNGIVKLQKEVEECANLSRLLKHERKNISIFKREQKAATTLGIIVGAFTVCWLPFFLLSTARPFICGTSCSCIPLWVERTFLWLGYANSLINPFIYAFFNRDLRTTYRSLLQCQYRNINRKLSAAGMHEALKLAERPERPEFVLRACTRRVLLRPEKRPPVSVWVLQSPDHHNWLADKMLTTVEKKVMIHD
D(3) dopamine receptor, sequence (P35462 whole entry): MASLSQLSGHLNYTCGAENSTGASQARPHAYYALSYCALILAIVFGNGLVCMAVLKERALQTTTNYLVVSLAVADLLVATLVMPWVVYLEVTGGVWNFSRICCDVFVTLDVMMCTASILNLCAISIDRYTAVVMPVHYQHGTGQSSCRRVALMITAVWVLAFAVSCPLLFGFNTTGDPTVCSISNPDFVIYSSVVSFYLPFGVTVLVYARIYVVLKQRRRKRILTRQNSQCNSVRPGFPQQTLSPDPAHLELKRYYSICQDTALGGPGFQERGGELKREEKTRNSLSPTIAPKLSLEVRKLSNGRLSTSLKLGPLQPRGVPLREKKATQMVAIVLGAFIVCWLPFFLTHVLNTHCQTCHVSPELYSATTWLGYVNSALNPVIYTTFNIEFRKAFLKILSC

IC50 [1] [nM] | Compound | also measured
1000 | CCCc1nc(C(=O)NCC(O)CN2CCN(c3cccc(C)c3C)CC2)c(C)n1-c1ccc(F)cc1 (stereo not drawn) | 
68 | CCCc1nc(C(=O)NCCCN2CCN(c3cccc(C)c3C)CC2)c(C)n1-c1ccc(F)cc1 | 
64 | COc1ccc(-n2c(-c3ccccc3)nc(C(=O)NCCCN3CCN(c4cccc(Cl)c4Cl)CC3)c2C)cc1 | 
189 | CCCc1nc(C(=O)NCCCN2CCN(c3cccc(Cl)c3Cl)CC2)c(C)n1-c1ccccc1F | 
191 | COc1ccc(-n2c(C)nc(C(=O)NCCCN3CCN(c4cccc(C)c4C)CC3)c2C)cc1 | 
104 | COc1ccc(-n2cc(C(=O)NCCCN3CCN(c4cccc(C)c4C)CC3)nc2-c2ccccc2)cc1 | 
68 | Cc1cccc(N2CCN(CCCNC(=O)c3nc(-c4ccccc4)n(-c4ccc5c(c4)OCCO5)c3C)CC2)c1C | 
64 | Cc1c(C(=O)NCC(O)CN2CCN(c3cccc(Cl)c3Cl)CC2)nc(-c2ccccc2)n1-c1ccc(F)cc1 (stereo not drawn) | 
610 | Cc1cccc(N2CCN(CC(O)CNC(=O)c3nc(C)n(-c4ccc5c(c4)OCCO5)c3C)CC2)c1C (stereo not drawn) | 
185 | Cc1c(C(=O)NCCCN2CCN(c3cccc(Cl)c3Cl)CC2)nc(-c2ccccc2)n1-c1ccccc1F | 
1370 | Cc1c(Cl)cccc1N1CCN(CCCNC(=O)c2nc(-c3ccccc3)n(-c3ccccc3)c2Cn2cncn2)CC1 | IC50 (Cytochrome P450 2D6): 4800 nM; CC50 at 48 h (in vitro): 19100 nM; IC50 (Cytochrome P450 3A4): > 20000 nM; IC50 (Cytochrome P450 1A2): 15300 nM; IC50 (Cytochrome P450 2C9): 3300 nM
593 | CCCc1nc(C(=O)NCC(O)CN2CCN(c3cccc(C)c3C)CC2)c(C)n1-c1ccc2c(c1)OCCO2 (stereo not drawn) | 
233 | Cc1cccc(N2CCN(CCCNC(=O)c3nc(C)n(-c4ccc(Cl)cc4)c3C)CC2)c1C | 
367 | CCCc1nc(C(=O)NCCCN2CCN(c3cccc(Cl)c3C)CC2)cn1-c1ccc(Cl)cc1 | 
1510 | CCCc1nc(C(=O)NCC(O)CN2CCN(c3cccc(Cl)c3Cl)CC2)c(C)n1-c1ccc(F)cc1 (stereo not drawn) | 
185 | Cc1cccc(N2CCN(CC(O)CNC(=O)c3nc(-c4ccccc4)n(-c4ccc(F)cc4)c3C)CC2)c1C (stereo not drawn) | 
238 | CCCc1nc(C(=O)NCCCN2CCN(c3cccc(C)c3C)CC2)cn1-c1ccc(F)cc1 | 
459 | Cc1nc(C(=O)NCC(O)CN2CCN(c3cccc(Cl)c3Cl)CC2)c(C)n1-c1ccccc1F (stereo not drawn) | 
297 | CCCc1nc(C(=O)NCCCN2CCN(c3cccc(Cl)c3Cl)CC2)c(C)n1-c1ccc2c(c1)OCCO2 | 
609 | COc1ccc(-n2c(-c3ccccc3)nc(C(=O)NCC(O)CN3CCN(c4cccc(C)c4C)CC3)c2C)cc1 (stereo not drawn) | 
286 | CCCc1nc(C(=O)NCCCN2CCN(c3cccc(C)c3C)CC2)c(C)n1-c1ccccc1 | 
 | Cc1nc(C(=O)NCCCN2CCN(c3cccc(Cl)c3Cl)CC2)c(C)n1-c1ccccc1 | IC50 [2]: 4.9 nM; IC50 (D(3) dopamine receptor): 493 nM; IC50 (D(4) dopamine receptor): > 10000 nM; IC50 [3]: 11 nM; IC50 (D(2) dopamine receptor): 1370 nM; IC50 [4]: 136 nM
383 | CCCc1nc(C(=O)NCCCN2CCN(c3cccc(Cl)c3Cl)CC2)c(C)n1-c1ccccc1OC | 
473 | CCCc1nc(C(=O)NCCCN2CCN(c3cccc(Cl)c3C)CC2)c(C)n1-c1ccccc1OC | 
96 | COc1ccc(-n2c(-c3ccccc3)nc(C(=O)NCCCN3CCN(c4cccc(C)c4C)CC3)c2C)cc1 | 
139 | Cc1nc(C(=O)NCCCN2CCN(c3cccc(Cl)c3Cl)CC2)c(C)n1C1CCCC1 | 

IC50 [1] [nM] | Compound | also measured
229 | CCCc1nc(C(=O)NCCCN2CCN(c3cccc(Cl)c3C)CC2)c(C)n1-c1ccc(F)cc1 | 
116 | Cc1cccc(N2CCN(CCCNC(=O)c3cn(-c4ccccc4)c(-c4ccccc4)n3)CC2)c1C | 
166 | Cc1c(Cl)cccc1N1CCN(CC(O)CNC(=O)c2nc(C)n(C3CCCC3)c2C)CC1 (stereo not drawn) | 
546 | COc1ccc(-n2c(C)nc(C(=O)NCC(O)CN3CCN(c4cccc(C)c4C)CC3)c2C)cc1 (stereo not drawn) | 
526 | COc1ccc(-n2c(-c3ccccc3)nc(C(=O)NCC(O)CN3CCN(c4cccc(Cl)c4C)CC3)c2C)cc1 (stereo not drawn) | 
604 | CCCc1nc(C(=O)NCCCN2CCN(c3cccc(Cl)c3C)CC2)c(C)n1-c1ccccc1 | 
64.1 | Cc1cccc(N2CCN(CCCNC(=O)c3nc(-c4ccccc4)n(-c4ccc(F)cc4)c3C)CC2)c1C | 
155 | Cc1nc(C(=O)NCCCN2CCN(c3cccc(Cl)c3Cl)CC2)c(C)n1-c1ccccc1C(F)(F)F | 
113 | Cc1c(Cl)cccc1N1CCN(CCCNC(=O)c2nc(C)n(-c3ccc(F)cc3)c2C)CC1 | 
235 | CCCc1nc(C(=O)NCCCN2CCN(c3cccc(C)c3C)CC2)c(C)n1-c1ccccc1Cl | 
106 | Cc1c(Cl)cccc1N1CCN(CCCNC(=O)c2nc(C)n(-c3ccc4c(c3)OCCO4)c2C)CC1 | 
739 | Cc1c(Cl)cccc1N1CCN(CC(O)CNC(=O)c2nc(-c3ccccc3)n(-c3ccccc3)c2C)CC1 (stereo not drawn) | 
661 | CCCc1nc(C(=O)NCC(O)CN2CCN(c3cccc(C)c3C)CC2)c(C)n1-c1ccc(Cl)cc1 (stereo not drawn) | 
663 | Cc1c(Cl)cccc1N1CCN(CC(O)CNC(=O)c2nc(C)n(-c3ccc4c(c3)OCCO4)c2C)CC1 (stereo not drawn) | 
2240 | Cc1c(Cl)cccc1N1CCN(CCCNC(=O)c2nc(-c3ccccc3)n(-c3ccc(F)cc3)c2C)CC1 | 
4370 | Cc1c(Cl)cccc1N1CCN(CCCNC(=O)c2nc(C)n(C3CCCC3)c2C)CC1 | 
77 | COc1ccc(-n2c(-c3ccccc3)nc(C(=O)NCCCN3CCN(c4cccc(Cl)c4C)CC3)c2C)cc1 | 
323 | COc1ccc(-n2c(C)nc(C(=O)NCC(O)CN3CCN(c4cccc(Cl)c4C)CC3)c2C)cc1 (stereo not drawn) | 
61 | CCCc1nc(C(=O)NCCCN2CCN(c3cccc(Cl)c3C)CC2)c(C)n1-c1ccc2c(c1)OCCO2 | 
198 | CCCn1c(C)nc(C(=O)NCCCN2CCN(c3cccc(Cl)c3Cl)CC2)c1C | 
193 | Cc1cccc(N2CCN(CCCNC(=O)c3nc(-c4ccccc4)n(-c4ccccc4)c3C)CC2)c1C | 
1510 | Cc1c(Cl)cccc1N1CCN(CCCNC(=O)c2nc(-c3ccccc3)n(-c3ccccc3)c2C)CC1 | IC50 (Cytochrome P450 2D6): 5400 nM; CC50 at 48 h (in vitro): 23600 nM; IC50 (Cytochrome P450 3A4): > 20000 nM; IC50 (Cytochrome P450 1A2): > 20000 nM; IC50 (Cytochrome P450 2C9): 2900 nM
283 | CCCc1nc(C(=O)NCCCN2CCN(c3cccc(C)c3C)CC2)c(C)n1-c1ccccc1OC | 
556 | Cc1c(Cl)cccc1N1CCN(CC(O)CNC(=O)c2nc(C)n(-c3cccc(Cl)c3)c2C)CC1 (stereo not drawn) | 
> 10000 | CCCn1c(C)nc(C(=O)NCC(O)CN2CCN(c3cccc(C)c3C)CC2)c1C (stereo not drawn) | 

Compound | IC50 [1] [nM] | also measured
Cc1c(Cl)cccc1N1CCN(CCCNC(=O)c2nc(C)n(CC(C)C)c2C)CC1 | 2220 | 
CCCc1nc(C(=O)NCCCN2CCN(c3cccc(Cl)c3C)CC2)c(C)n1-c1ccc(OC)cc1 | 204 | 

Reference: ChEMBL document CHEMBL1821711, “Design and synthesis of novel arylpiperazine derivatives containing the imidazole core targeting 5-HT(2A) receptor and 5-HT transporter” (J Med Chem, 2011)
